Test results taken from ChEMBL document CHEMBL3885881, “DrugMatrix”.

Species on record: Rattus norvegicus
Experiment: DrugMatrix - Regimen: Daily Repeat
Assay type: toxicity, organism-based, Sprague-Dawley
Design: regimen Daily Repeat, gender Male, age 6-8 weeks
Settings: in vivo, po, route oral GAVAGE, […]; for ABSOLUTE BASOPHIL / ABSOLUTE EOSINOPHIL / ABSOLUTE LYMPHOCYTE / ABSOLUTE MONOCYTE / ABSOLUTE SEGMENTED NEUTROPHIL / BASOPHIL / EOSINOPHIL / ERYTHROCYTE COUNT / HEMATOCRIT / HEMOGLOBIN / LEUKOCYTE COUNT / LYMPHOCYTE / MEAN CORPUSCULAR HEMOGLOBIN / MEAN CORPUSCULAR HEMOGLOBIN CONCENTRATION / MEAN CORPUSCULAR VOLUME / MONOCYTE / NEUTROPHIL / NUCLEATED RED BLOOD CELLS / PLATELET COUNT: tissue Blood; for ALANINE AMINOTRANSFERASE / ALBUMIN / ALKALINE PHOSPHATASE / ASPARTATE AMINOTRANSFERASE / BLOOD UREA NITROGEN / CARBON DIOXIDE / CHLORIDE / CHOLESTEROL / CREATINE PHOSPHOKINASE / CREATININE / GLUCOSE / LACTATE DEHYDROGENASE / LIPASE / PHOSPHORUS / POTASSIUM / SODIUM / TOTAL BILIRUBIN / TOTAL PROTEIN / URIC ACID: tissue Plasma
[1] = 0 mg/kg, 72 h, dose level Control, time 3 day
[2] = 0 mg/kg, 120 h, dose level Control, time 5 day
[3] = 100 mg/kg, 72 h, dose level M1, time 3 day

Q: Which results are given for `CC(C)(c1ccc(O)cc1)c1ccc(O)cc1` [BISPHENOL A]?
A: ABSOLUTE BASOPHIL [1]: 0 CELLS/uL; ABSOLUTE EOSINOPHIL [1]: 33 CELLS/uL; ABSOLUTE LYMPHOCYTE [1]: 9048.5 CELLS/uL; ABSOLUTE MONOCYTE [1]: 80.17 CELLS/uL; ABSOLUTE SEGMENTED NEUTROPHIL [1]: 1521.67 CELLS/uL; BASOPHIL [1]: 0%; EOSINOPHIL [1]: 0.17%; ERYTHROCYTE COUNT [1]: 5.46 x10E6/uL; HEMATOCRIT [1]: 32.87%; HEMOGLOBIN [1]: 12.95 G/DL; LEUKOCYTE COUNT [1]: 10.68 x10E3/uL; LYMPHOCYTE [1]: 86.67%; MEAN CORPUSCULAR HEMOGLOBIN [1]: 23.72 pg; MEAN CORPUSCULAR HEMOGLOBIN CONCENTRATION [1]: 39.4 G/DL; MEAN CORPUSCULAR VOLUME [1]: 60.18 fL; MONOCYTE [1]: 0.83%; NEUTROPHIL [1]: 12.33%; NUCLEATED RED BLOOD CELLS [1]: 0 /100WBC; PLATELET COUNT [1]: 1211.33 x10E3/uL; ALANINE AMINOTRANSFERASE [1]: 76.67 u/L; ALBUMIN [1]: 3.93 G/DL; ALKALINE PHOSPHATASE [1]: 317.17 u/L; ASPARTATE AMINOTRANSFERASE [1]: 81.17 u/L; BLOOD UREA NITROGEN [1]: 12.33 mg/dL; CARBON DIOXIDE [1]: 31.17 mmol/L; CHLORIDE [1]: 98.33 MEQ/L; CHOLESTEROL [1]: 67.17 mg/dL; CREATINE PHOSPHOKINASE [1]: 312.33 u/L; CREATININE [1]: 0.19 mg/dL; GLUCOSE [1]: 165.5 mg/dL; LACTATE DEHYDROGENASE [1]: 94.5 u/L; LIPASE [1]: 9.83 u/L; PHOSPHORUS [1]: 10.1 mg/dL; POTASSIUM [1]: 5.16 MEQ/L; SODIUM [1]: 143.02 MEQ/L; TOTAL BILIRUBIN [1]: 0.2 mg/dL; TOTAL PROTEIN [1]: 5.88 G/DL; URIC ACID [1]: 0.68 mg/dL; ABSOLUTE BASOPHIL [2]: 0 CELLS/uL; ABSOLUTE EOSINOPHIL [2]: 14.67 CELLS/uL; ABSOLUTE LYMPHOCYTE [2]: 9629.83 CELLS/uL; ABSOLUTE MONOCYTE [2]: 72.5 CELLS/uL; ABSOLUTE SEGMENTED NEUTROPHIL [2]: 1049.67 CELLS/uL; BASOPHIL [2]: 0%; EOSINOPHIL [2]: 0.17%; ERYTHROCYTE COUNT [2]: 5.36 x10E6/uL; HEMATOCRIT [2]: 33.82%; HEMOGLOBIN [2]: 13.48 G/DL; LEUKOCYTE COUNT [2]: 10.77 x10E3/uL; LYMPHOCYTE [2]: 90.17%; MEAN CORPUSCULAR HEMOGLOBIN [2]: 25.28 pg; MEAN CORPUSCULAR HEMOGLOBIN CONCENTRATION [2]: 39.92 G/DL; MEAN CORPUSCULAR VOLUME [2]: 63.3 fL; MONOCYTE [2]: 0.67%; NEUTROPHIL [2]: 9%; NUCLEATED RED BLOOD CELLS [2]: 0.17 /100WBC; PLATELET COUNT [2]: 1275.33 x10E3/uL; ALANINE AMINOTRANSFERASE [2]: 93.67 u/L; ALBUMIN [2]: 4.17 G/DL; ALKALINE PHOSPHATASE [2]: 402.5 u/L; ASPARTATE AMINOTRANSFERASE [2]: 122.83 u/L; BLOOD UREA NITROGEN [2]: 14.75 mg/dL; CARBON DIOXIDE [2]: 26.4 mmol/L; CHLORIDE [2]: 98.5 MEQ/L; CHOLESTEROL [2]: 57.5 mg/dL; CREATINE PHOSPHOKINASE [2]: 305.17 u/L; CREATININE [2]: 0.21 mg/dL; GLUCOSE [2]: 142 mg/dL; LACTATE DEHYDROGENASE [2]: 83.5 u/L; LIPASE [2]: 85.83 u/L; PHOSPHORUS [2]: 8.18 mg/dL; POTASSIUM [2]: 5.46 MEQ/L; SODIUM [2]: 144 MEQ/L; TOTAL BILIRUBIN [2]: 0.25 mg/dL; TOTAL PROTEIN [2]: 5.63 G/DL; URIC ACID [2]: 0.8 mg/dL; ABSOLUTE BASOPHIL [3]: 0 CELLS/uL; ABSOLUTE EOSINOPHIL [3]: 35.67 CELLS/uL; ABSOLUTE LYMPHOCYTE [3]: 8627 CELLS/uL; ABSOLUTE MONOCYTE [3]: 90.33 CELLS/uL; ABSOLUTE SEGMENTED NEUTROPHIL [3]: 547 CELLS/uL; BASOPHIL [3]: 0%; EOSINOPHIL [3]: 0.33%; ERYTHROCYTE COUNT [3]: 5.35 x10E6/uL; HEMATOCRIT [3]: 33.47%; HEMOGLOBIN [3]: 13.5 G/DL; LEUKOCYTE COUNT [3]: 9.3 x10E3/uL; LYMPHOCYTE [3]: 92.67%; MEAN CORPUSCULAR HEMOGLOBIN [3]: 25.27 pg; MEAN CORPUSCULAR HEMOGLOBIN CONCENTRATION [3]: 40.33 G/DL; MEAN CORPUSCULAR VOLUME [3]: 62.63 fL; MONOCYTE [3]: 1%; NEUTROPHIL [3]: 6%; NUCLEATED RED BLOOD CELLS [3]: 0 /100WBC; PLATELET COUNT [3]: 906.33 x10E3/uL; ALANINE AMINOTRANSFERASE [3]: 76.33 u/L; ALBUMIN [3]: 4 G/DL; ALKALINE PHOSPHATASE [3]: 385 u/L; ASPARTATE AMINOTRANSFERASE [3]: 87 u/L; BLOOD UREA NITROGEN [3]: 12 mg/dL; CARBON DIOXIDE [3]: 31.67 mmol/L; CHLORIDE [3]: 98 MEQ/L; CHOLESTEROL [3]: 61 mg/dL; CREATINE PHOSPHOKINASE [3]: 318 u/L; CREATININE [3]: 0.17 mg/dL; GLUCOSE [3]: 154 mg/dL; LACTATE DEHYDROGENASE [3]: 114.33 u/L; LIPASE [3]: 9.67 u/L; PHOSPHORUS [3]: 10.63 mg/dL; POTASSIUM [3]: 5.46 MEQ/L; SODIUM [3]: 142.7 MEQ/L; TOTAL BILIRUBIN [3]: 0.17 mg/dL; TOTAL PROTEIN [3]: 5.73 G/DL; URIC ACID [3]: 0.77 mg/dL
